Reference: PMC12977544, “Phenotypic high-throughput screening identifies modulators of gut microbial choline metabolism” (mBio, 2026)

Tests used:
[1] = test system: germ-free C57BL/6 mice colonized with defined community incl. E. coli MS 200-1; assay: Serum TMAO in gnotobiotic mice after inhibitor treatment; type: in vivo, Mus musculus C57BL/6
Description: One milliliter of culture from each of the six individually grown strains was added to create this mixed culture. In a biosafety cabinet, a 300 mg/mL stock of sterile inhibitor in filter-sterilized DMSO was prepared. After this preparation, a working solution of 3 mg/mL of the inhibitor stock in sterile 1% hydroxyethyl cellulose/1% polysorbate 80 was prepared within 4 days of gavaging the mice and stored at room temperature. A low dose of the inhibitor was also prepared, using a working solution of 0.3 mg/mL of the inhibitor stock in sterile 1% hydroxyethyl cellulose/1% polysorbate 80. The vehicle was prepared in the same way with DMSO without inhibitor. […] Two weeks after colonization, mice were administrated by gavage with 3 mg/kg of the inhibitor or vehicle between 6 and 8 a.m. once a day for three consecutive days. After a 10-day washout period, mice were orally administered 30 mg/kg of the inhibitor once a day (same time as above) for three consecutive days, and blood was collected 24 h after the last gavage. A fecal sample was collected before the first gavage. At sacrifice, tissues collected were blood, cecal contents, a fecal pellet, proximal colon, distal small intestine, liver, and kidney. Mice were anesthetized with isoflurane and underwent cardiac puncture for a terminal blood draw, followed by cervical dislocation. Tissues were snap-frozen in liquid nitrogen. Blood was spun down at 8,000 × g for 8 min at room temperature; the resulting serum layer was removed and snap-frozen. All snap-frozen tissues were stored at -80°C until needed. One volume of plasma and 4 volumes of ice-cold extraction solution (HPLC-grade methanol with 2.5 μM d9-TMAO internal standard) were combined and spun at 21,100 × g for 3 min at 4°C. One volume of the resulting supernatant was then mixed with 1 volume of HPLC-grade water. […] was used for peak quantification, and internal standards were utilized as a comparison to calculate plasma concentrations. Statistical significance was calculated using an unpaired t-test.

[2] = test system: conventional C57BL/6 mice; assay: Serum TMAO in conventional mice after inhibitor treatment; type: in vivo, Mus musculus C57BL/6
Description: In a biosafety cabinet, a 300 mg/mL stock of sterile inhibitor in filter-sterilized DMSO was prepared. After this preparation, a working solution of 3 mg/mL of the inhibitor stock in sterile 1% hydroxyethyl cellulose/1% polysorbate 80 was prepared within 4 days of gavaging the mice and stored at room temperature. A low dose of the inhibitor was also prepared, using a working solution of 0.3 mg/mL of the inhibitor stock in sterile 1% hydroxyethyl cellulose/1% polysorbate 80. The vehicle was prepared in the same way with DMSO without inhibitor. […] All mice were administered by gavage with 3 mg/kg or 30 mg/kg of the inhibitor once a day (between 6 and 8 a.m.) for three consecutive days. A fecal sample was collected before the first gavage. At sacrifice, tissues collected were blood, cecal contents, a fecal pellet, proximal colon, distal small intestine, liver, and kidney. Mice were anesthetized with isoflurane and underwent cardiac puncture for a terminal blood draw, followed by cervical dislocation. Tissues were snap-frozen in liquid nitrogen. Blood was spun down at 8,000 × g for 8 min at room temperature; the resulting serum layer was removed and snap-frozen. […] […] was used for peak quantification, and internal standards were utilized as a comparison to calculate plasma concentrations. Statistical significance was calculated using an unpaired t-test.

For `Cc1ccc(-c2cc(C(=O)NCCCCCN3CCCCCC3)c(C)[nH]2)cc1C` [Compound 45], the “Serum TMAO level relative to vehicle treatment” value ([1]; gnotobiotic mice, 30 mg/kg oral gavage daily for 3 days, 1% choline diet, 24 h after last dose, P = 0.054) was “about 60 % of vehicle treatment”, the “Decrease of serum TMAO levels” value ([1]; gnotobiotic mice, 30 mg/kg, n = 8, P = 0.054) was ~ 40% and the “Decrease of TMAO levels compared to vehicle treatment” value ([1]; in vivo, mouse model not given) was “approximately 40%”. The “Serum TMAO level relative to vehicle treatment” value ([2]; 30 mg/kg oral gavage daily for 3 days, 1% choline diet, P = 0.027) was “about 60 % of vehicle treatment” and the “Decrease of serum TMAO levels” value ([2]; 30 mg/kg, n = 6, P = 0.027) was ~ 40%.
